Reference: patent US20060128723A1, “Sulptionamide compounds that modulate chemokine receptor activity (CCR4)” (priority 2003, published 2006)
Structures can show the parent of a compound that is named as a salt.

With `COc1nc(Br)cnc1NS(=O)(=O)c1scc(Cl)c1Cl` (as salt: ammonium) [Example 5, N-(5-Bromo-3-methoxypyrazin-2-yl)-3,4-dichlorothiophene-2-sulphonamide, ammonium salt] the melting point was 204 °C (dec.).
For `COc1nc(Br)cnc1NS(=O)(=O)c1sc(Cl)c(Cl)c1Cl` (as salt: ammonium) [Example 6, N-(5-Bromo-3-methoxypyrazin-2-yl)-3,4,5-trichlorothiophene-2-sulphonamide, ammonium salt], the melting point was 211 °C (dec.).

Compared with `COc1nccnc1NS(=O)(=O)c1sc(Cl)c(Cl)c1Cl` [Example 1, 3,4,5-Trichloro-N-(3-methoxypyrazin-2-yl)thiophene-2-sulphonamide], `COc1nc(C)cnc1NS(=O)(=O)c1sc(Cl)c(Cl)c1Cl` [Example 3, 3,4,5-Trichloro-N-(3-methoxy-5-methylpyrazin-2-yl)thiophene-2-sulphonamide] is lower in melting point: 212 to 214 °C for the first, 146 to 147 °C for the second.

Compared with `COc1nccnc1NS(=O)(=O)c1scc(Cl)c1Cl` [Example 2, 3,4-Dichloro-N-(3-methoxypyrazin-2-yl)thiophene-2-sulphonamide], `COc1nc(C)cnc1NS(=O)(=O)c1scc(Cl)c1Cl` [Example 4, 3,4-Dichloro-N-(3-methoxy-5-methylpyrazin-2-yl)thiophene-2-sulphonamide] is lower in melting point: 151.5 to 152.5 °C for the first, 117 to 118 °C for the second.

First: COc1nc(Cl)cnc1NS(=O)(=O)c1sc(Cl)c(Cl)c1Cl [Example 7, 3,4,5-Trichloro-N-(5-chloro-3-methoxypyrazin-2-yl)thiophene-2-sulphonamide.]
Second: COc1nc(Cl)cnc1NS(=O)(=O)c1scc(Cl)c1Cl [Example 8, 3,4-Dichloro-N-(5-chloro-3-methoxypyrazin-2-yl)thiophene-2-sulphonamide.]
The melting point of the first is higher: 178 to 179 °C for the first, 116 to 117 °C for the second.
